# Reference: patent publication US20250388592A1 (REMYND N.V., priority 2022, published 2025)
# Tested on: M17_3TAU(P301L) cells
# Test: TAU-induced cytotoxicity (LDH) in the neuroblastoma tauopathy model
# Assay type: cell-based
# Conditions: Homo sapiens, 168 h, inhibition of TAU-induced toxicity, 7 days retinoic acid differentiation, LDH readout
# Description: A TAU expression plasmid was constructed by sub-cloning the cDNA encoding for human TAU-P301L protein, wherein proline at position 301 is substituted by a leucine residue, into mammalian expression vector pcDNA3.1 resulting in the plasmid pcDNA3.1-TAUP301L. Plasmids pcDNA3.1 and pcDNA3.1-TAU P301L were transfected into human neuroblastoma cells (BE-M17; ATCC No. CRL-2267™) using lipofectamine reagent and subsequently, independent clonal cell lines with the plasmids stably integrated into the genome were selected by antibiotic resistance selection (Geneticin (G418)), resulting in cell lines M17.pcDNA3 and M17_3TAUP301L. Expression of the TAUP301 L gene in the M17_3TAUP301 L cells was confirmed by Western blot analysis.
# Differentiation of the cells with RA leads to phosphorylation and subsequent aggregation of TAU, inducing a tauopathy in these cells. Cytotoxicity of cells was measured by quantification of lactate dehydrogenase (LDH) levels. In dead cells LDH is leaked out of the cells into the medium due to a loss of plasma-membrane integrity.
# Briefly, 3 days preceding the experiment pre-cultures of M17.pcDNA3 and M17_3TAU(P301L) cells were prepared, starting from a stock culture, at a density of 50.000-100.000 cells/cm2 in detection medium (Optimem Reduced Serum without phenol red (Gibco, Cat. 31985-047) supplemented with 1% fetal calf serum (FCS), 1 mM sodium pyruvate, 1×non-essential amino acids (NEAA), 500 μg/ml G418 and 0.5×antibiotic/antimycotic (ABAM)). At the day of the experiment these precultures were diluted to ˜[…] in detection medium without FCS and 60 μL of this suspension is dispensed per well into a 96-well microtiter plate. After 3 hours of incubation at 37° C./5% C02 an equal volume of detection medium containing 2.5 μM RA was added and subsequently incubated for 7 days at 37° C./5% CO2. After 7 days, LDH activity was determined using the Promega Cytotox 96 Non-Radioactive cytotoxicity assay (Cat. G1780), according the manufacturer's instructions. Cytotoxicity is measured as the ratio of LDH increase in the supernatant divided by the LDH increase in the total cell suspension (sum of the LDH measured in cells and supernatant). Toxicity was determined after 7 days of differentiation with retinoic acid in M17_3TAU(P301 L) cells compared to M17.pcDNA3 cells.
# The M17_3TAU(P301L) cell line makes it possible to assess the ability of novel compounds to inhibit TAU-induced cytotoxicity. […] Compounds were tested for their ability to hamper TAU-induced toxicity at different concentrations, ranging from low non-effective concentrations to high potent concentrations. Afterwards, the dose-dependent inhibition curve was used to calculate their EC50 (Table 3B).
row,SMILES,EC50 [µM]
1,Cc1ccccc1CC(=O)N1CC2(CN(Cc3ccccc3C)C2)C1 [Cpd B434],0.396
2,O=C(NC1CCC(F)(F)CC1)N1CC2(CN(Cc3ncccc3C(F)(F)F)C2)C1 [Cpd B206],0.031
3,"COc1cccc(OC)c1CNC1CC2(C1)CC(Nc1nc(Cc3ccc(Cl)cc3)ns1)C2 (centres unmarked) [Cpd B311, N-(3-(4-chlorobenzyl)-1,2,4-thiadiazol-5-yl)-N′-(2,6-dimethoxybenzyl) spiro[3.3]heptane-2,6-diamine]",0.004
4,O=C(CC1CCC(F)(F)CC1)N1CC2(CN(Cc3ccc(Cl)cn3)C2)C1 [Cpd B113],0.0123
5,"COc1ccc(CNC2CC3(C2)CC(Nc2nc(Cc4ccc(Cl)cc4)ns2)C3)cc1F (centres unmarked) [Cpd B313, N-(3-(4-chlorobenzyl)-1,2,4-thiadiazol-5-yl)-N′-(3-fluoro-4-methoxybenzyl) spiro[3.3]heptane-2,6-diamine]",0.0029
6,"COc1ccc(CNC2CC3(C2)CC(Nc2nc(Cc4ccc(Cl)cc4)ns2)C3)c(OC)c1 (centres unmarked) [Cpd B316, N-(3-(4-chlorobenzyl)-1,2,4-thiadiazol-5-yl)-N′-(2,4-dimethoxybenzyl) spiro[3.3]heptane-2,6-diamine]",0.0031
7,"COc1ccc(CCNC2CC3(C2)CC(Nc2nc(Cc4ccc(Cl)cc4)ns2)C3)cc1 (centres unmarked) [Cpd B333, N-(3-(4-chlorobenzyl)-1,2,4-thiadiazol-5-yl)-N′-(4-methoxyphenethyl) spiro[3.3]heptane-2,6-diamine]",0.002
8,"CC(=O)Nc1ccc(CNC2CC3(C2)CC(Nc2nc(Cc4ccc(Cl)cc4)ns2)C3)cc1 (centres unmarked) [Cpd B326, N-(4-((6-(3-(4-chlorobenzyl)-1,2,4-thiadiazol-5-ylamino)spiro[3.3]heptan-2-ylamino)methyl)phenyl) acetamide]",0.145
9,"CCOc1ccccc1CNC1CC2(C1)CC(Nc1nc(Cc3ccc(Cl)cc3)ns1)C2 (centres unmarked) [Cpd B315, N-(3-(4-chlorobenzyl)-1,2,4-thiadiazol-5-yl)-N′-(2-ethoxybenzyl) spiro[3.3]heptane-2,6-diamine]",0.004
10,"CN(Cc1ccccc1)C1CC2(CC(NC(=O)Cc3ccc(F)cc3)C2)C1 (centres unmarked) [Cpd B067, N-(6-(benzyl(methyl)amino)spiro[3.3]heptan-2-yl)-2-(4-fluorophenyl)acetamide]",0.00354
11,Cc1cc(CN2CC3(C2)CN(C(=O)CC2CCC(F)(F)CC2)C3)n[nH]1 [Cpd B449],0.119
12,"O=C(Cc1ccc(Cl)cc1)N1CC2(CN(Cc3ncc(Cl)cn3)C2)C1 [Cpd B039, 2-(4-chlorophenyl)-1-(6-((5-chloropyrimidin-2-yl)methyl)-2,6-diazaspiro[3.3]heptan-2-yl)ethanone]",0.0563
13,"Fc1cc(F)cc(CNC2CC3(C2)CC(Nc2nc(Cc4ccc(Cl)cc4)ns2)C3)c1 (centres unmarked) [Cpd B329, N-(3-(4-chlorobenzyl)-1,2,4-thiadiazol-5-yl)-N′-(3,5-difluorobenzyl) spiro[3.3]heptane-2,6-diamine]",0.0023
14,COc1cccc(CN2CC3(C2)CN(S(=O)(=O)Cc2ccc(F)cc2)C3)c1 [Cpd B221],0.0186
15,Cc1nc(CN2CC3(C2)CN(C(=O)C(F)(F)c2ccc(F)cc2)C3)cs1 [Cpd B411],3.01
16,Cn1cc(CN2CC3(C2)CN(C(=O)OCC2CCC(F)(F)CC2)C3)c(Cl)n1 [Cpd B157],0.00933
17,"COc1cccc(CNC2CC3(C2)CC(Nc2nc(Cc4ccc(Cl)cc4)ns2)C3)c1OC (centres unmarked) [Cpd B314, N-(3-(4-chlorobenzyl)-1,2,4-thiadiazol-5-yl)-N′-(2,3-dimethoxybenzyl) spiro[3.3]heptane-2,6-diamine]",0.003
18,O=C(NCC1CCOCC1)N1CC2(CN(Cc3ccc(F)cc3)C2)C1 [Cpd B169],0.881
19,Cc1nc(CN2CC3(C2)CN(C(=O)CC2CCC(F)(F)CC2)C3)co1 [Cpd B127],0.0676
20,Cc1cccnc1CN1CC2(C1)CN(S(=O)(=O)Cc1ccc(F)cc1)C2 [Cpd B213],0.0146
21,Cc1cccnc1CN1CC2(C1)CN(C(=O)OCc1ccc(Cl)cc1)C2 [Cpd B137],0.0493
22,O=C(OCC1CCC(F)(F)CC1)N1CC2(CN(Cc3ccc(F)cc3)C2)C1 [Cpd B132],0.00316
23,O=C(NCC1CCC(F)(F)CC1)N1CC2(CN(Cc3ccc(F)cc3C(F)(F)F)C2)C1 [Cpd B201],0.00355
24,Cc1cnc(CN2CC3(C2)CN(C(=O)CC2CCC(F)(F)CC2)C3)s1 [Cpd B116],0.0722
25,Cc1nc(CN2CC3(C2)CN(C(=O)CC2CCC(F)(F)CC2)C3)c(Cl)s1 [Cpd B117],0.00381

row,SMILES,EC50 [µM]
1,O=C(NC1CCC(F)(F)CC1)N1CC2(CN(Cc3c(F)cccc3C(F)(F)F)C2)C1 [Cpd B208],0.252
2,Cc1nc(CN2CC3(C2)CN(C(=O)COc2ccc(F)cc2)C3)cs1 [Cpd B103],2
3,Cc1nc(CN2CC3(C2)CN(C(=O)CC2CCC(F)(F)CC2)C3)sc1C [Cpd B451],0.105
4,Cc1cccnc1CN1CC2(C1)CN(C(=O)NCC1CCC(F)(F)CC1)C2 [Cpd B198],0.0165
5,"FC(F)(F)c1cccc(CNC2CC3(C2)CC(Nc2nc(Cc4ccc(Cl)cc4)ns2)C3)c1 (centres unmarked) [Cpd B325, N-(3-(4-chlorobenzyl)-1,2,4-thiadiazol-5-yl)-N′-(3-(trifluoromethyl)benzyl) spiro[3.3]heptane-2,6-diamine]",0.0362
6,COc1cccc(CN2CC3(C2)CN(C(=O)OCc2ccc(Cl)cc2)C3)c1 [Cpd B463],0.0417
7,"O=C(Cc1ccc(Cl)cc1)N1CC2(CN(Cc3ccccn3)C2)C1 [Cpd B032, 2-(4-chlorophenyl)-1-(6-(pyridin-2-ylmethyl)-2,6-diazaspiro[3.3]heptan-2-yl)ethanone]",0.0485
8,O=C(CC1CCC(F)(F)CC1)N1CC2(CN(Cc3ncccc3F)C2)C1 [Cpd B464],0.0401
9,O=C(OCC1CCC(F)(F)CC1)N1CC2(CN(Cc3ccc(C(F)(F)F)cc3)C2)C1 [Cpd B164],0.0191
10,"Fc1ccc(Cc2nsc(NC3CC4(CC(NCc5ccccc5)C4)C3)n2)cc1 (centres unmarked) [Cpd B301, N-benzyl-N′-(3-(4-fluorobenzyl)-1,2,4-thiadiazol-5-yl) spiro[3.3]heptane-2,6-diamine]",0.0112
11,Cc1cccnc1CN1CC2(C1)CN(C(=O)CC1CCC(F)(F)CC1)C2 [Cpd B083],0.0189
12,"O=C(Cc1ccc(Cl)cc1)N1CC2(CN(CCc3ccccc3Cl)C2)C1 [Cpd B062, 1-(6-(2-chlorophenethyl)-2,6-diazaspiro[3.3]heptan-2-yl)-2-(4-chlorophenyl)ethanone]",0.00108
13,"COc1ccc(CNC2CC3(C2)CC(Nc2nc(Cc4ccc(Cl)cc4)ns2)C3)cc1 (centres unmarked) [Cpd B318, N-(3-(4-chlorobenzyl)-1,2,4-thiadiazol-5-yl)-N′-(4-methoxybenzyl) spiro[3.3]heptane-2,6-diamine]",0.0101
14,Cc1cccnc1CN1CC2(C1)CN(C(=O)C(C)(C)Oc1ccc(Cl)cc1)C2 [Cpd B085],3.76
15,CCn1cc(CN2CC3(C2)CN(C(=O)NCc2ccc(F)cc2)C3)cn1 [Cpd B410],3.32
16,"COc1ccc(CCCN2CC3(C2)CN(C(=O)Cc2ccc(F)cc2)C3)cc1 [Cpd B060, 2-(4-Fluoro-phenyl)-1-{6-[3-(4-methoxy-phenyl)-propyl]-2,6-diaza-spiro[3.3]hept-2-yl}-ethanone]",0.00081
17,O=C(NCC1CCC(F)(F)CC1)N1CC2(CN(Cc3ccc(C(F)(F)F)cc3)C2)C1 [Cpd B200],0.0293
18,"Clc1ccc(Cc2nsc(NC3CC4(CC(NCc5ccc(Cl)c(Cl)c5)C4)C3)n2)cc1 (centres unmarked) [Cpd B306, N-(3-(4-chlorobenzyl)-1,2,4-thiadiazol-5-yl)-N′-(3,4-dichlorobenzyl) spiro[3.3]heptane-2,6-diamine]",0.0357
19,COc1cccc(CN2CC3(CN(Cc4ccc(F)cc4)C3)C2)c1 [Cpd B226],0.00116
20,Cc1cccnc1CN1CC2(C1)CN(C(=O)NCc1cccc(C(F)(F)F)c1)C2 [Cpd B435],0.39
21,"O=C(Cc1ccc(F)cc1)N1CC2(CN(CCc3ccc(F)cc3)C2)C1 [Cpd B027, 2-(4-Fluoro-phenyl)-1-{6-[2-(4-fluoro-phenyl)-ethyl]-2,6-diaza-spiro[3.3]hept-2-yl}-ethanone]",0.0217
22,COc1cccc(CN2CC3(C2)CN(C(=O)Cc2ccccn2)C3)c1 [Cpd B419],1.26
23,O=C(Nc1ccc(Cl)cc1)N1CC2(CN(Cc3ccc(F)cc3)C2)C1 [Cpd B187],0.00915
24,O=C(NCC1CCC(F)(F)CC1)N1CC2(CN(Cc3c(F)cccc3C(F)(F)F)C2)C1 [Cpd B459],0.0648
25,O=C(NCc1ccc(F)cc1)N1CC2(CN(Cc3cccnc3F)C2)C1 [Cpd B432],0.482
